Results published in patent publication EP1674466A1, “2,5- and 2,6-disubstituted benzazole analogues useful as protein kinase inhibitors” (4SC AG, priority 2004, dated 2006).

The compounds below were run against at least one kinase selected from Aurora A, Aurora B, EGF-R, ERBB2, PDGFR, IGF1-R, VEGF-R2, VEGF-R3, EPHB4, Tie2, and SRC (assay: 33PanQinase Activity Assay (protein kinase assay)). Conditions: on at least one kinase of the listed panel, or on at least two kinases from at least two different molecular mechanisms of tumor progression; recombinant human kinases, 1 µM ATP.
Format: biochemical
Procedure: The effect of the benzazole derivatives was tested on recombinant, human protein kinases. All protein kinases were expressed in Sf9 insect cells as human recombinant GST-fusion proteins or as His-tagged proteins by means of the baculovirus expression system. Protein kinases were purified by affinity chromatography using either GSH-agarose or Ni-NTH-agarose. The purity and identity of each was checked by SDS-PAGE/silver staining and by western blot analysis with specific antibodies. A proprietary protein kinase assay (^33PanQinase® Activity Assay) was used for measuring the kinase activity. All kinase assays were performed in 96-well FlashPlates™ in a 50 µl reaction volume. The assay for all enzymes contained 60 mM HEPES-NaOH, pH 7.5, 3 mM MgCl2, 3 mM MnCl2, 3 µM Na-orthovanadate, 1.2 mM DTT, 50 µg/ml PEG20000 and 1 µM [γ-^33P]-ATP (approx. 5x10^5 cpm per well). The reaction cocktails were incubated at 30°C for 80 minutes. The reaction was stopped with 50 µl of 2% (v/v) H3PO4, plates were aspirated and washed two times with 200 µl of 0.9% (w/v) NaCl. Incorporation of ^33Pi was determined with a microplate scintillation counter. All assays were performed with a BeckmanCoulter/ Sagian robotic system.

| IC50 [nM] | Structure (SMILES) |
| --- | --- |
| < 500 | COc1cc2ncnc(Nc3ccc4nc(NC(=O)c5ccccc5)oc4c3)c2cc1OC [Example 1, N-[6-(6,7-Dimethoxyquinazolin-4-ylamino)benzoxazol-2-yl]benzamide] |
| < 500 | COc1cc2ncnc(Nc3ccc4nc(NC(=O)c5ccccc5)sc4c3)c2cc1OC [Example 2, N-[6-(6,7-Dimethoxyquinazolin-4-ylamino)benzothiazol-2-yl]benzamide] |
| < 500 | COc1cc2c(Nc3ccc4nc(NC(=O)c5ccccc5)sc4c3)ncnc2cc1OCCCN1CCN(C)CC1 [Example 5, N-(6-{6-Methoxy-7-[3-(4-methylpiperazin-1-yl)propoxy]quinazolin-4-yl-amino}benzothiazol-2-yl)benzamide] |
| < 500 | Cc1cc(Nc2ccnc(Nc3ccc4nc(NC(=O)c5ccccc5)sc4c3)n2)n[nH]1 [Example 9, N-{6-[4-(5-Methylpyrazol-3-ylamino)pyrimidin-2-ylamino]benzothiazol-2-yl}benzamide] |
| < 500 | O=C(Nc1nc2cc(Nc3ncnc4nc[nH]c34)ccc2s1)c1ccccc1 [Example 11, N-[5-(Purin-6-ylamino)benzothiazol-2-yl]benzamide] |
